Experimental data as given in US20240197938A1, “ANTIMICROBIAL COMPOUNDS BASED ON GLUCOHEPTONIC ACIDS AND THEIR SALTS” (HARCROS CHEMICALS, INC., priority 2021, published 2024).

Assays:
Type in all cases: cell-based
[1] = test system: Staphylococcus aureus; test: ASTM E2315-16 Time-Kill Procedure; details: 30 seconds
Method: (§1) Select compounds were tested for antimicrobial activity using ASTM method […]-16 (Standard Guide for Assessment of Antimicrobial Activity using a Time-Kill Procedure). Six microbes were tested: Candida albicans, Staphylococcus aureus, Staphylococcus epidermidis. Escherichia coli, Salmonella abony, and Listeria monocytogenes. Four chlorhexidine salts were tested: chlorhexidine di-α-glucoheptonate (Sample G), chlorhexidine di-β73-glucoheptonate (Sample H), chlorhexidine digluconate (Sample I), and chlorhexidine diacetate (Sample P). Both chlorhexidine diglucoheptonate salts were prepared at a 2:1 molar ratio of glucoheptonic acid to chlorhexidine. Dilutions of each salt were prepared using sterile water (20-30 ppm hardness), to achieve the desired wt. % concentration. Two glucoheptonic acids were evaluated for antimicrobial activity against the same six microbes as Example 13. Sample L was α-glucoheptonic acid. Sample M was β73-glucoheptonic acid. Benzalkonium salts were also tested using the same procedure as set forth in Example 13. The samples were benzalkonium chloride (C12-C16) (Sample C), benzalkonium chloride (C12-C14) (Sample D), benzalkonium chloride in combination with a stoichiometric amount of α-glucoheptonate (Sample F), and benzalkonium chloride in combination with a molar excess of α-glucoheptonate (Sample N). Sample F was prepared by mixing and extensively heating a stoichiometric quantity (1:1) of sodium α-glucoheptonate with benzalkonium chloride, typified by the C12-14 alkyl chain. Sample N was prepared by simply blending benzalkonium chloride, typified by the C12-16 chain, with a molar excess of sodium α-glucoheptonate (1.6:1). Both Samples F and N contain sodium chloride.

[2] = test system: Candida albicans; test: ASTM E2315-16 Time-Kill Procedure; details: for Log Reduction: 30 seconds; for Log Reduction (LR): contact time 10 minutes
Method: as §1

[3] = test system: Staphylococcus epidermidis; test: ASTM E2315-16 Time-Kill Procedure; details: for Log Reduction: 30 seconds
Method: as §1

[4] = test system: all microbes (Candida albicans, Staphylococcus aureus, Staphylococcus epidermidis, Escherichia coli, Salmonella abony, Listeria monocytogenes); test: ASTM E2315-16 Time-Kill Procedure, average across all microbes; details: for Log Reduction, Average, all microbes: 30 seconds; for average Log Reduction (LR) in microbial population across all microbes: 10 minutes
Method: Select compounds were tested for antimicrobial activity using ASTM method […]-16 (Standard Guide for Assessment of Antimicrobial Activity using a Time-Kill Procedure). Six microbes were tested: Candida albicans, Staphylococcus aureus, Staphylococcus epidermidis. Escherichia coli, Salmonella abony, and Listeria monocytogenes. Four chlorhexidine salts were tested: chlorhexidine di-α-glucoheptonate (Sample G), chlorhexidine di-β73-glucoheptonate (Sample H), chlorhexidine digluconate (Sample I), and chlorhexidine diacetate (Sample P). Both chlorhexidine diglucoheptonate salts were prepared at a 2:1 molar ratio of glucoheptonic acid to chlorhexidine. Dilutions of each salt were prepared using sterile water (20-30 ppm hardness), to achieve the desired wt. % concentration. Samples G, H, I, and P were also tested at a concentration of 0.60 wt % active and evaluated for the average Log Reduction in microbial population at 10 minutes, across all microbes. A further test was conducted at a concentration of 1.0 wt % active and evaluated for the average Log Reduction in microbial population at 10 minutes, across all microbes. Benzalkonium salts were also tested using the same procedure as set forth in Example 13. The samples were benzalkonium chloride (C12-C16) (Sample C), benzalkonium chloride (C12-C14) (Sample D), benzalkonium chloride in combination with a stoichiometric amount of α-glucoheptonate (Sample F), and benzalkonium chloride in combination with a molar excess of α-glucoheptonate (Sample N). Sample F was prepared by mixing and extensively heating a stoichiometric quantity (1:1) of sodium α-glucoheptonate with benzalkonium chloride, typified by the C12-14 alkyl chain. Sample N was prepared by simply blending benzalkonium chloride, typified by the C12-16 chain, with a molar excess of sodium α-glucoheptonate (1.6:1). Both Samples F and N contain sodium chloride. A further antimicrobial test was conducted to determine the log reduction at 10 minutes. Samples C, D, F, and N are as defined above.

[5] = test system: Salmonella abony; test: ASTM E2315-16 Time-Kill Procedure; details: 30 seconds
Method: as §1, with “concentration.” for “concentration. Two glucoheptonic acids were evaluated for antimicrobial activity against the same six microbes as Example 13. Sample L was α-glucoheptonic acid. Sample M was β73-glucoheptonic acid.”

[6] = test system: Escherichia coli; test: ASTM E2315-16 Time-Kill Procedure; details: 30 seconds
Method: as §1, with “concentration.” for “concentration. Two glucoheptonic acids were evaluated for antimicrobial activity against the same six microbes as Example 13. Sample L was α-glucoheptonic acid. Sample M was β73-glucoheptonic acid.”

[7] = test system: Listeria monocytogenes; test: ASTM E2315-16 Time-Kill Procedure; details: for Log Reduction: 30 seconds
Method: as §1, with “concentration.” for “concentration. Two glucoheptonic acids were evaluated for antimicrobial activity against the same six microbes as Example 13. Sample L was α-glucoheptonic acid. Sample M was β73-glucoheptonic acid.”

SMILES: CC(=O)O.CC(=O)O.NC(=N\CCCCCC/N=C(N)/N=C(\N)Nc1ccc(Cl)cc1)/N=C(\N)Nc1ccc(Cl)cc1 [Sample P, chlorhexidine diacetate]
- Log Reduction ([1]; 0.20% (wt. %)): 3.22
- Log Reduction ([1]; 0.60% (wt. %)): 4.93
- Log Reduction ([1]; 1.00% (wt. %)): 5.07
- Log Reduction ([2]; 0.20% (wt. %)): 2.56
- Log Reduction ([2]; 0.60% (wt. %)): 3.35
- Log Reduction ([2]; 1.00% (wt. %)): 4.48
- Log Reduction ([3]; 0.20% (wt. %)): 1.57
- Log Reduction ([3]; 0.60% (wt. %)): 3.57
- Log Reduction ([3]; 1.00% (wt. %)): 3.75
- Log Reduction, Average, all microbes ([4]; 0.20% (wt. %)): 2.06
- Log Reduction, Average, all microbes ([4]; 0.60% (wt. %)): 3.02
- Log Reduction, Average, all microbes ([4]; 1.00% (wt. %)): 3.71
- average Log Reduction (LR) in microbial population across all microbes ([4]; 0.60 wt % active): 4.09
- average Log Reduction (LR) in microbial population across all microbes ([4]; 1.0 wt % active): 5.17
- Log Reduction ([5]; 0.20% (wt. %)): 2.17
- Log Reduction ([5]; 0.60% (wt. %)): 3.34
- Log Reduction ([5]; 1.00% (wt. %)): 4.34
- Log Reduction ([6]; 0.20% (wt. %)): 1.54
- Log Reduction ([6]; 0.60% (wt. %)): 1.59
- Log Reduction ([6]; 1.00% (wt. %)): 3.07
- Log Reduction ([7]; 0.20% (wt. %)): 1.29
- Log Reduction ([7]; 0.60% (wt. %)): 1.36
- Log Reduction ([7]; 1.00% (wt. %)): 1.55

SMILES: O=C(O)[C@H](O)[C@H](O)[C@@H](O)[C@H](O)[C@H](O)CO [Sample L, α-glucoheptonic acid]
- Log Reduction (LR) ([2]; 2.5 % w/w): 3.65
- Log Reduction (LR) ([2]; 5.0 % w/w): 3.00
- Log Reduction (LR) ([3]; 2.5 % w/w, contact time 10 minutes): 3.39
- Log Reduction (LR) ([3]; 5.0 % w/w, contact time 5 minutes): 3.05
- Log Reduction (LR) ([3]; 5.0 % w/w, contact time 10 minutes): 3.50

SMILES: N=C(NCCCCCCNC(=N)NC(=N)Nc1ccc(Cl)cc1)NC(=N)Nc1ccc(Cl)cc1.O=C(O)C(O)C(O)C(O)C(O)C(O)CO.O=C(O)C(O)C(O)C(O)C(O)C(O)CO [Sample G, chlorhexidine di-α-glucoheptonate]
- Log Reduction ([1]; 0.20% (wt. %)): 0.77
- Log Reduction ([1]; 0.60% (wt. %)): 1.07
- Log Reduction ([1]; 1.00% (wt. %)): 3.06
- Log Reduction ([2]; 0.20% (wt. %)): 0.75
- Log Reduction ([2]; 0.60% (wt. %)): 1.45
- Log Reduction ([2]; 1.00% (wt. %)): 4.56
- performance in the Time-Kill Test ([2]; in words): performed very strongly
- Log Reduction ([3]; 0.20% (wt. %)): 0.95
- Log Reduction ([3]; 0.60% (wt. %)): 1.91
- Log Reduction ([3]; 1.00% (wt. %)): 3.65
- Log Reduction, Average, all microbes ([4]; 0.20% (wt. %)): 1.74
- Log Reduction, Average, all microbes ([4]; 0.60% (wt. %)): 2.12
- Log Reduction, Average, all microbes ([4]; 1.00% (wt. %)): 3.90
- average Log Reduction (LR) in microbial population across all microbes ([4]; 0.60 wt % active): 3.85
- average Log Reduction (LR) in microbial population across all microbes ([4]; 1.0 wt % active): 5.34
- Log Reduction ([5]; 0.20% (wt. %)): 3.04
- Log Reduction ([5]; 0.60% (wt. %)): 3.14
- Log Reduction ([5]; 1.00% (wt. %)): 3.39
- Log Reduction ([6]; 0.20% (wt. %)): 3.57
- Log Reduction ([6]; 0.60% (wt. %)): 3.66
- Log Reduction ([6]; 1.00% (wt. %)): 3.77
- Log Reduction ([7]; 0.20% (wt. %)): 1.34
- Log Reduction ([7]; 0.60% (wt. %)): 1.49
- Log Reduction ([7]; 1.00% (wt. %)): 4.99
- performance in the Time-Kill Test ([7]; in words): performed very strongly
